Test results as given in patent publication US5852007A, “Cysteine and serine protease inhibitors containing D-amino acid at the P2 position, methods of making same, and methods of using same” (priority 1997, dated 1998).
Like-named read-outs stand apart in the source and are kept apart here. Square brackets hold non-standard residues; d marks the D form. Peptide text beside a SMILES is read from it. * marks the point of attachment. d(hPhe) = N[C@H](CCc1ccccc1)C(=O)O; Tle = CC(C)(C)[C@H](N)C(=O)O; Cbz = O=C(OCc1ccccc1)*; Bn = c1ccc(C*)cc1; Ms = CS(=O)(=O)*

Legend:
Type in all cases: biochemical
cathepsin B = target: T1, cathepsin B (Homo sapiens, UniProt P07858); experiment: Inhibition of cathepsin B; conditions: for inhibition at 1 µM: read-out: Cat B % I @ 1 uM; for IC50: read-out: Cat B IC50
T1 construct: purchased Calbiochem 219364
Experimental: (§1) Additionally,the order of reagents added to the plate was altered because both enzymes are constitutively active. Following inhibitor addition to the plates, appropriate 2× concentrated stock dilutions of the enzyme preparations were made in assay buffer and 100 μl added to each well. The assay was initiated by addition of 100 μl of 2× concentrated stock dilution of substrate in assay buffer.

cathepsin L = target: T2, cathepsin L (Homo sapiens, UniProt P07711); experiment: Inhibition of cathepsin L; conditions: for inhibition at 1 µM: read-out: Cat L % I @ 1 uM
T2 construct: purchased Calbiochem 219402
T2 sequence (P07711 114-288 limits assumed): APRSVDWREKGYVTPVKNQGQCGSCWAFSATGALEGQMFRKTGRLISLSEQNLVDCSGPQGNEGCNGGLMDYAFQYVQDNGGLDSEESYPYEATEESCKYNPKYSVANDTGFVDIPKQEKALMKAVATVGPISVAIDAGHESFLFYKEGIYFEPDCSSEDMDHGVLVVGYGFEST
T2 sequence (P07711 292-333 limits assumed): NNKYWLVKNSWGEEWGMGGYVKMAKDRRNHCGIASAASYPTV
Experimental: as §1

[1] = target: T3, Recombinant human calpain I (Homo sapiens, UniProt P07384); experiment: Inhibition of calpain I activity
T3 construct: made in house
T3 sequence (P07384 1-714): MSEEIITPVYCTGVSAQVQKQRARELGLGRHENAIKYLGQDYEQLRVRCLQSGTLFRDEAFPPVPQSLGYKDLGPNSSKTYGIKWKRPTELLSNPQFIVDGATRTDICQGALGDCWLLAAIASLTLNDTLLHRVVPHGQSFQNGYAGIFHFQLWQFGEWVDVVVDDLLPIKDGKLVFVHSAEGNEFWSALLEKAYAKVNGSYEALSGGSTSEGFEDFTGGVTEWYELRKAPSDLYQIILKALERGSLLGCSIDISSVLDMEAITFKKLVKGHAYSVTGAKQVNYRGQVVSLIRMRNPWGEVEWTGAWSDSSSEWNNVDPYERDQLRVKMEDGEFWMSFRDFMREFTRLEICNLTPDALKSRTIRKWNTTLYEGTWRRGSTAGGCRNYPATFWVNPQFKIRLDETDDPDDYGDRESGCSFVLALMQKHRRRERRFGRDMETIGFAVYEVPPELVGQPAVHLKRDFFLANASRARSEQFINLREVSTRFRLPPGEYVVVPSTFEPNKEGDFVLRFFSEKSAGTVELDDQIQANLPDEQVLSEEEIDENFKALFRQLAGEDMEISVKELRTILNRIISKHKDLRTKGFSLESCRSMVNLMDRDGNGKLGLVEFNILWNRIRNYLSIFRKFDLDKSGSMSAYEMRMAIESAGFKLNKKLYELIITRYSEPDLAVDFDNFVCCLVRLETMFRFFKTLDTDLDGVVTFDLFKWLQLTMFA
Experimental: To evaluate inhibitory activity, stock solutions (40 times concentrated) of exemplary compounds of the invention were prepared in 100% anhydrous DMSO and 5 μL of each inhibitor preparation were aliquoted into each of three wells of a 96-well plate. Recombinant human calpain I, prepared by the method of Meyer et al. (Biochem. […] To start the reaction, 20 μL of 50 mM CaCl2 in assay buffer was added to all wells of the plate, excepting three, which were used as background signal baseline controls. Substrate hydrolysis was monitored every 5 minutes for a total of 30 minutes. […] Inhibition of calpain I activity was calculated as the percent decrease in the rate of substrate hydrolysis in the presence of inhibitor (VI) relative to the rate in its absence (VO). Comparison between VO and VI was made within the linear range for substrate hydrolysis. For screening, compounds were tested at 10, 1.0, and 0.1 μM. […] The results were plotted as % inhibition versus log inhibitor concentration and the IC50 was calculated from linear regression of the data. Apparent second order rate constants were determined from analysis of reaction progress curves under pseudo-first order conditions. Each determination represents the means of three or more independent single cuvette analyses continually monitored via a Perkin-Elmer LS50B spectrofluorimeter. The rate of inhibition of hydrolysis was obtained by fitting the curve to the exponential equation (1): […]

thrombin = target: T4, thrombin (Homo sapiens, UniProt P00734); experiment: Inhibition of thrombin; conditions: for inhibition at 10 µM: read-out: Thrombin % I @ 10 uM
T4 construct: purchased Sigma Chem. Co. T-7009

α-chymotrypsin = target: T5, α-chymotrypsin (Bos taurus, UniProt P00766); experiment: Inhibition of α-chymotrypsin; conditions: for inhibition at 10 µM: read-out: Chymotrypsin % I @ 10 uM
T5 construct: purchased Sigma Chem. Co. C-3142
Experimental: Additionally, because α-chymotrypsin is not a calcium sensitive enzyme and is constitutively active, following addition of inhibitor stocks to the 96 well plates, 100 μl of a 2-fold concentrated stock of enzyme in dilution buffer was first added and the reaction started by addition of 100 μl of a 2-fold concentrated stock of substrate in assay buffer. Substrate hydrolysis was monitored every 5 minutes up to 30 minutes using a Fluoroskan II ([…]).

| SMILES | inhibition at 1 µM (cathepsin B; Table III, 1 uM) [%] | inhibition at 1 µM (cathepsin L; Table III, 1 uM) [%] | IC50 ([1]; Table III) [nM] | inhibition at 0.1 µM ([1]; Table III, 0.1 uM) [%] | inhibition at 10 µM (thrombin; Table III, 10 uM) [%] | inhibition at 10 µM (α-chymotrypsin; Table III, 10 uM) [%] | further results |
| --- | --- | --- | --- | --- | --- | --- | --- |
| O=C[C@H](Cc1ccccc1)NC(=O)[C@@H](Cc1ccccc1)NS(=O)(=O)c1ccccc1 [Compound 59] | 100 | 100 | 20 | 86 | 0 | 4 | IC50 (cathepsin B; Table III): 5 nM |
| CC(C)C[C@@H](NC(=O)OCc1ccccc1)C(=O)N[C@H](C=O)Cc1ccccc1 [Compound 85] (Cbz-[dL]-Phe-aldehyde) |  |  | 110 | 44 |  |  | inhibition at 1 µM (cathepsin B): 44%; inhibition at 1 µM (cathepsin L): 89%; inhibition at 10 µM (thrombin): 0%; inhibition at 10 µM (α-chymotrypsin): 6% |
| CN(Cc1ccccc1)C(=O)C[C@@H](NS(C)(=O)=O)C(=O)N[C@H](C=O)Cc1ccccc1 [Compound 78] | 100 | 100 | 12 | 94 | 0 | 0 | IC50 (cathepsin B; Table III): 6 nM |
| CS(=O)(=O)N[C@H](COCc1ccccc1)C(=O)N[C@H](C=NNC(N)=O)Cc1ccccc1 [Compound 115] | 47 | 94 |  | 0 | 0 | 0 |  |
| CS(=O)(=O)N[C@H](CCc1ccccc1)C(=O)N[C@H](C=O)Cc1ccccc1 [Compound 62] (Ms-[d(hPhe)]-Phe-aldehyde) | 85 | 89 | 39 | 71 | 0 | 4 |  |
| C[N+]([O-])=C[C@H](Cc1ccccc1)NC(=O)[C@@H](COCc1ccccc1)NS(C)(=O)=O [Compound 116] | 96 | 100 |  | 4 | 0 | 0 |  |
| CN(C)S(=O)(=O)N[C@H](COCc1ccccc1)C(=O)N[C@H](C=O)Cc1ccccc1 [Compound 47] | 96 | 98 | 9 | 91 | 6 | 2 |  |
| O=C[C@H](Cc1ccccc1)NC(=O)[C@@H](COCc1ccccc1)NC(=O)c1ccccc1 [Compound 44] | 62 | 100 | 280 | 29 | 7 | 0 |  |
| CC(C)C[C@@H](C=O)NC(=O)[C@@H](CC(C)C)NS(C)(=O)=O [Compound 87] | 86 | 96 | 95 | 23 |  |  |  |
| O=C[C@H](Cc1ccccc1)NC(=O)[C@@H](Cc1c[nH]c2ccccc12)NS(=O)(=O)c1cccs1 [Compound 73] | 100 | 100 | 14 | 95 | 12 | 16 |  |
| CS(=O)(=O)NC(CCSCc1ccccc1)C(=O)N[C@H](C=O)Cc1ccccc1 (single isomer, unassigned) [Compound 108] |  |  | 25 |  |  |  | Cat B % I @ 1 uM (cathepsin B; Table III, 1 uM): 96%; Cat L % I @ 1 uM (cathepsin L; Table III, 1 uM): 100%; Calpain % I @ 0.1 uM ([1]; Table III, 0.1 uM): 83%; Thrombin % I @ 10 uM (thrombin; Table III, 10 uM): 0%; Chymotrypsin % I @ 10 uM (α-chymotrypsin; Table III, 10 uM): 0% |
| O=C[C@H](Cc1ccccc1)NC(=O)[C@H]1C[C@@H](OS(=O)(=O)c2ccccc2)CN1S(=O)(=O)c1ccccc1 [Compound 112] | 25 | 100 |  | 7 | 0 | 9 |  |
| CC(C)(C)OC(=O)N[C@H](COCc1ccccc1)C(=O)N[C@H](C=O)Cc1ccccc1 [Compound 82] | 60 | 93 |  | 4 | 6 | 8 |  |
| CC(C)(C)[C@@H](C=O)NC(=O)[C@@H](COCc1ccccc1)NS(C)(=O)=O [Compound 111] (Ms-[dS](Bn)-[Tle]-aldehyde) | 10 | 91 |  | 27 | 0 | 16 |  |
| Cc1ccc(S(=O)(=O)N2C[C@@H](C#N)C[C@@H]2C(=O)N[C@H](C=O)Cc2ccccc2)cc1 [Compound 129] | 64 | 100 |  | 73 | 1 | 6 |  |
| CS(=O)(=O)N[C@H](COCc1ccccc1)C(=O)N[C@H]1CCCCNC1=O [Compound 126] | 2 | 16 |  | 5 | 0 | 6 |  |
| CS(=O)(=O)N[C@H](COCc1ccccc1)C(=O)N[C@@H](Cc1ccccc1)C(O)OCc1ccccc1 (some centres unmarked) [Compound 135] | 98 | 100 | 11 | 91 | 0 | 4 |  |
| Cn1cnc(S(=O)(=O)N[C@H](COCc2ccccc2)C(=O)N[C@H](C=O)Cc2ccccc2)c1 [Compound 63] |  | 100 | 75 | 41 | 1 | 40 |  |
| CC(C)(C)OC(=O)N[C@H](CC(=O)N1CCc2ccccc2C1)C(=O)N[C@H](C=O)Cc1ccccc1 [Compound 8, (R)-2-THIQ-C(=O)CH2 CH(NHBoc)C(=O)-Phe--H] |  |  |  |  |  |  | IC50 (cathepsin L; Table II, read-out: Cat L IC50): 24000 nM; IC50 ([1]; Table II): ~20000 nM; inhibition at 10 µM (thrombin; Table II, 10 uM): 0%; inhibition at 10 µM (α-chymotrypsin; Table II, 10 uM): 32% |
